Data from paper PMC7529893, “Structural basis for substrate recognition and chemical inhibition of oncogenic MAGE ubiquitin ligases” (Nature Communications, 2020).

Columns and labels:
[1] = molecular target: T1, MAGE-A11 binding to PCF11 (Homo sapiens, UniProt P43364); test: Pull-down (co-IP) of FLAG-MAGE-A11 with endogenous PCF11 in cell lysate; settings: 100 µM, 24 h, FLAG-MAGE-A11 HEK293FT cell lysates
T1 construct: expressed in transfected cells
T1 sequence (P43364 1-429): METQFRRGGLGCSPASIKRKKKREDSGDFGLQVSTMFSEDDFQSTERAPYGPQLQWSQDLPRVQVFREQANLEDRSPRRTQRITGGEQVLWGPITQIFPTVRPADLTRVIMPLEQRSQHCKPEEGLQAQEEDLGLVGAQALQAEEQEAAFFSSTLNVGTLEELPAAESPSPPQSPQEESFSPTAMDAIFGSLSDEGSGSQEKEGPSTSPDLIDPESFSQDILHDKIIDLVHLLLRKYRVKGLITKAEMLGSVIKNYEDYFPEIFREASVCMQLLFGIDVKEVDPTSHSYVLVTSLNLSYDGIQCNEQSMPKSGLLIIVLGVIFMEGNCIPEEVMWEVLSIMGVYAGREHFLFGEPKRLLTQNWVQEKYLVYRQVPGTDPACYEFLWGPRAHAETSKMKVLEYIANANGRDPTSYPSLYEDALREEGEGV
Method: HEK293FT cells were plated in 6 cm^2 plates and transfected 24 h later with Effectene (QIAGEN) according to the manufacturer’s protocol. After 48 h, cells were washed and scraped in cold PBS, spun down, and resuspended in lysis buffer (50 mM Tris pH 7.4, 150 mM NaCl, 1 mM DTT, 0.1% (v/v) Triton X-100, 10 mM N-Ethylmaleimide, and 1X protease inhibitor cocktail (Sigma)). Cell lysates were incubated with appropriate antibodies overnight at 4 °C and then with protein A beads for 2 h at 4 °C. Beads were then washed with lysis buffer three times and eluted with 2X SDS sample buffer.
For western blotting, samples in SDS sample buffer were resolved on SDS-PAGE gels and then transferred to nitrocellulose membranes prior to blocking in TBST with 5% (w/v) milk powder or 3% (w/v) bovine serum albumin and probing with primary and secondary antibodies (GE Healthcare). Primary antibodies were: anti-Myc (Sigma, #C3956), anti-FLAG (Sigma, #F3165), anti-HUWE1 (Novus Biologicals, #NB 100-652), anti-PCF11 (Bethyl Laboratories, #A303-706A), anti-GAPDH (Cell Signaling Technology, #2118), anti-TRIM28 (Abcam, #ab22553), anti-AMPKα1 (Cell Signaling Technology, #2795), and anti-MMS19 (Proteintech, #16015-1-AP) and Tb-anti-GST (Invitrogen, #PV3551). Secondary antibodies were: Donkey Anti-Rabbit IgG (GE Healthcare, NA934V) and Sheep Anti-Mouse IgG (GE Healthcare, NA931V). […]

[2] = High throughput Caco-2 permeability; assay type: in vitro ADME; settings: human, Caco-2, pH 7.4, 10 µmol/l, 2 h; for Papp A→B at 2 h, 10 µmol/l: apical to basolateral; for Papp B→A at 2 h, 10 µmol/l: basolateral to apical
Method: High throughput Caco-2 permeability was performed in the TranswellR 0.4 µm polycarbonate membrane 96-well system with modified methods. Caco-2 cells were maintained at 37 °C in a humidified incubator with an atmosphere of 5% CO2. The cells were cultured in 75 cm^2 flasks with Dulbecco’s Modified Eagle’s Medium (DMEM) containing 10% (v/v) FBS, 1% (v/v) non-essential amino acids (NEAA), 100 units/ml of penicillin, and 100 µg/ml of streptomycin. The Caco-2 cells were seeded onto inserts at a density of 2 × 10^4 cells/insert separately. The medium in the wells was exchanged each other day, and the trans epithelial electrical resistance (TEER) value was measured using an epithelial voltohm meter (Millipore, Billerica, Massachusetts). […] For transport experiments, each cultured monolayer on the 96-well plate was washed twice with a transport buffer (HBSS containing 25 mM HEPES, pH 7.4). The permeability assay was initiated by the addition of each compound solution (10 µmol/l) into inserts (apical side, A) or receivers (basolateral side, B). The Caco-2 cell monolayers were incubated for 2 h at 37 °C. Fractions were collected from receivers (if apical to basal permeability) or inserts (if basal to apical permeability), and concentrations were assessed by UPLC/MS (Waters; Milford, MA). All compounds were tested in triplicates. The A → B (or B → A) apparent permeability coefficients (Papp) of each compound were calculated using the equation, Papp = dQ/dt × 1/AC0, where dQ/dt equals the flux of a drug across the monolayer, A equals the total insert well surface area, and C0 is the initial concentration of substrate in the donor compartment. The efflux ratio was determined by dividing the Papp in the B-A direction by the Papp in the A-B direction.

SMILES | MAGE-A11 binding to PCF11 in cell lysate ([1]; listed as SJ521054) | Papp A→B at 2 h, 10 µmol/l [2] [×10⁻⁶ cm/s] | Papp B→A at 2 h, 10 µmol/l [2] [×10⁻⁶ cm/s] | MAGE-A11 binding to PCF11 in cell lysate ([1]; listed as SJ1008066)
FC(F)(F)c1ccc2c(NCCCNCc3ccc4[nH]ccc4c3)ccnc2c1 [SJ000521054-02] | inhibited MAGE-A11 binding to PCF11 in cell lysates | 11.5 | 14.2 | 
c1ccc2c(NCCCNCc3ccc4[nH]ccc4c3)ccnc2c1 [SJ001008066-01] |  | 8.17 | 8.09 | inhibited MAGE-A11 binding to PCF11 in cell lysates
